{"source": "patent US20230346771A1", "about": "“INHIBITORS OF ENPP1 AND MODULATION OF BONE GROWTH” (Petragen, Inc., priority 2022, published 2023)", "test_system": "fenestration defects on buccal aspect of mandibular first molar in mice", "experiment": "Fenestration defect model with microCT of mandibles", "format": "in vivo", "settings": "high dose (10 uM, 1 uL on collagen sponge in defect); 28 days; compared to ALPL, DMSO and low dose", "experimental": "Fenestration defects were created on buccal aspect of mandibular first molar, distal root, in 6-7 week old mice. Collagen sponge with 1 uL of either alkaline phosphatase (ALPL) (100 ng/uL), DMSO (1 uL undiluted), high dose ENPP1 inhibitor (10 uM), low dose ENPP1 inhibitor (1 uM) was applied in the defect (n=3 or 4 for each group). Mice were euthanized 28 days later, and their mandibles were microCT scanned (unoperated side, defect side). A region of interest was defined as follows: • Right and left sides registered to each other to standardize position; • 480 microns mesial to and 3600 microns distal to first molar mesial height of contour; and\nUnoperated side with defect side were registered, the enamel was removed from analysis, and change in volume (defect side—control side) was calculated from for dentin/cementum and alveolar bone for each treatment: ALPL, DMSO, low dose ENPP1 inhibitor, and high dose ENPP1 inhibitor. Regenerated bone area was much larger than defect size. To make the defect, muscle attachment was severed, and the region was curetted. Because the collagen sponge was placed in the defect and not fully enclosed (muscle was repositioned and sutured over sponge), there could be some leakage of DMSO/ALP/ENPP1 inhibitor, further stimulating bone growth."}
{"compound": "COc1ccc2c(-c3ccc(CNS(N)(=O)=O)cc3)ccnc2c1", "note": "[ENPP1 inhibitor, N-[[4-(7-methoxy-4-quinolinyl)phenyl]methyl]-sulfamide]", "values": [{"measurement": "bone densities on the fenestration side (density heat maps)", "result": "higher"}]}
